We go through one substance from patent US20260200982A1, “HER RECEPTOR DERIVED PEPTIDES AND METHODS OF USE THEREOF” (Ramot at Tel-Aviv University Ltd., priority 2022, published 2026).

For orientation: IC50 means the concentration that inhibits the measured activity by half.

The star is where a group is joined. Myristoyl = CCCCCCCCCCCCCC(=O)*

The test system of one assay is Panc-1 cells. Nature of the assay: Colony formation assay, Panc-1. Format: cell-based, human. To be noted: 8 μM, 72 hours, FIG. 8. The procedure:
Colony formation assay—Cells were plated onto 12-well plate (6×10^4 cells/well) and treated with either PBS or myr-NLS at the IC50 concentration for 3 days. Cells were collected and replated in 10-cm plates (at 3 dilutions of 1:10, 1:20 and 1:40). After 7-14 days when visible and yet separated colonies were formed, the cells were fixed with 0.1% acetic acid in PBS, and stained with 0.4% crystal violet in 0.1% acetic acid. Total colonies area was calculated using the ImageJ program.
In order to test the effect of myr-NLS on cell tumorigenicity, a colony formation assay was performed. To this end, Panc-1 and MIA PaCa-2 cells were treated or untreated for 72 hours with IC50 dose of myr-NLS (SEQ ID NO: 5, 8 μM and 4.5 μM respectively). Cells were then seeded at the same dilutions in new plates until colonies were formed.

Assay [1] concerns MIA PaCa-2 pancreatic cancer cells. Description: Methylene blue viability assay, MIA PaCa-2. Type of assay: cell-based, human. As to conditions: MiaPaCa2; 72 hours; FIGS. 4B and 4C; read-out: IC50 (cell viability). The source says:
(§1) Cell lines—Human breast cancer cell lines SKBR3 [Peles E et al. EMBO J. (1993) 12(3):961-71] and MCF7 [Faigenbloom L et al., Mol Syst Biol. (2015) 11(12):845] and human glioblastoma U87 [Goldberg L et al. Cancer Res. (2006) 66(24):11709-17] cell line, as well as Rat-1 fibroblast cells and H-Ras-transformed Rat-1 cells (EJ cells) [Marom M et al. J Biol Chem. (1995) 270(38):22263-70] and human Panc-1 and MIA PaCa-2 pancreatic cell lines (Rak R et al. Oncoscience. 2014 1(1):39-48; Weisz B et al. Oncogene (1999) 18, 2579±2588) were all grown in Dulbecco's modified Eagle's medium (DMEM; Biological Industries, Beithaemek, Israel). Human colorectal cancer cell lines DLD-1 (ATTC Cat No. CCL-221), HCT-116 (ATTC Cat No. CCL-247) and LNCaP prostate cancer cells were grown in Roswell Park Memorial Institute 1640 (RPMI 1640) medium and McCoy's 5A media, respectively (Sigma-Aldrich). All media were supplemented with antibiotics and 10% heat-inactivated fetal bovine serum (FBS; Gibco). Human breast cell line MCF10A [Bott A et al. Oncotarget. […]
(§2) Methylene blue viability assay—Cells were plated in 96-wells plates at cell densities of 1.5×10^3 (EJ, DLD-1), 3×10^3 (Rat-1, HCT-116, U87), 5×10^3 (SKBR3, MCF7) and 6×10^3 (MCF10A) cells/well. […] IC-50 values were calculated using a non-linear regression model (logarithmic inhibitor vs. normalized response-variable slope) with the GraphPad Prism 6 software.

Assay [2] concerns H-Ras-transformed Rat-1 cells (EJ cells). Type of assay: cell-based. As to conditions: FIG. 4C.
Description: as §1, §2

The subject of assay [3] is HCT-116 colon cancer cells. Type of assay: cell-based, human. To be noted: HCT116; 72 hours; FIGS. 4B and 4C; read-out: IC50 (cell viability). The source says: (§3) Cell lines—Human breast cancer cell lines SKBR3 [Peles E et al. EMBO J. (1993) 12(3):961-71] and MCF7 [Faigenbloom L et al., Mol Syst Biol. (2015) 11(12):845] and human glioblastoma U87 [Goldberg L et al. Cancer Res. (2006) 66(24):11709-17] cell line, as well as Rat-1 fibroblast cells and H-Ras-transformed Rat-1 cells (EJ cells) [Marom M et al. J Biol Chem. (1995) 270(38):22263-70] and human Panc-1 and MIA PaCa-2 pancreatic cell lines (Rak R et al. Oncoscience. 2014 1(1):39-48; Weisz B et al. Oncogene (1999) 18, 2579±2588) were all grown in Dulbecco's modified Eagle's medium (DMEM; Biological Industries, Beithaemek, Israel). Human colorectal cancer cell lines DLD-1 (ATTC Cat No. CCL-221), HCT-116 (ATTC Cat No. CCL-247) and LNCaP prostate cancer cells were grown in Roswell Park Memorial Institute 1640 (RPMI 1640) medium and McCoy's 5A media, respectively (Sigma-Aldrich). All media were supplemented with antibiotics and 10% heat-inactivated fetal bovine serum (FBS; Gibco). Human breast cell line MCF10A [Bott A et al. Oncotarget. (2017) 8(27):43897-43914] was grown in Dulbeco's Modified Eagle's Medium/Nutrient Mixture F-12 HAM medium (DMEM F-12 HAM; Sigma-Aldrich), supplemented with antibiotics, 5% inactivated horse serum (HS; Invitrogen), 2 mM L-glutamine (Biological Industries, Beithaemek, Israel), 0.1 μg/ml cholera toxin (Sigma-Aldrich), 0.5 μg/ml hydrocortisone (Sigma-Aldrich), 10 μg/ml insulin (Biological Industries, Beithaemek, Israel) and 2 ng/ml EGF (R&D Systems). Cells were incubated at 37° C. in 5% CO2 in air, and the medium was changed every 3-4 days. Cells were passaged in trypsin/disodium ethylenediaminetetraacetic acid (Biological Industries, Beithaemek, Israel) when confluency reached 70%. One day prior to treatment the cells were plated at ~50% confluency in a medium supplemented with 10% FBS or 5% HS, accordingly.
(§4) Methylene blue viability assay—Cells were plated in 96-wells plates at cell densities of 1.5×10^3 (EJ, DLD-1), 3×10^3 (Rat-1, HCT-116, U87), 5×10^3 (SKBR3, MCF7) and 6×10^3 (MCF10A) cells/well. On the following day, cells were treated as indicated, and grown for 72 hours. Cell number determination was performed as described previously. IC-50 values were calculated using a non-linear regression model (logarithmic inhibitor vs. normalized response-variable slope) with the GraphPad Prism 6 software.

A further assay concerns DLD-1 colon cancer cells. Format: cell-based, human. To be noted: DLD-1; 72 hours; FIGS. 4B and 4C; read-out: IC50 (cell viability).
Description: as §3, §4

The test system of the next assay is U87 glioma cells. Format: cell-based, human. To be noted: U87; 72 hours; FIGS. 4B and 4C; read-out: IC50 (cell viability).
Description: as §3, §4

The subject of assay [4] is Panc-1 pancreatic cancer cells. Type of assay: cell-based, human. As to conditions: Panc 1; 72 hours; FIGS. 4B and 4C; read-out: IC50 (cell viability).
Description: as §3, §4

Assay [5] relates to DLD-1 colon cancer tumor xenografts. Nature of the assay: Colon Tumor Growth in Nude Mice. To be noted: DLD-1 xenografts, 25 μg/100 μl PBS intraperitoneal daily, FIGS. 14A-C. Type of assay: in vivo. The procedure:
Colon Tumor Growth in Nude Mice—Nude CD1-Nu mice (25-30 g) housed in barrier facilities on a 12-h light/dark cycle one week prior to the injection of tumor cells (day zero). On day zero, 5×10^6 DLD-1 cells were implanted subcutaneously just above the right femoral joint. Tumor size was measured every 3-4 days. When the tumors were apparently seen, the animals were divided randomly into three groups of mice [control vehicle treated, myr-NLS1 (SEQ ID NO: 5), myr-NLS4 (SEQ ID NO: 17)]. Treatment was performed by intraperitoneal injection of 25 μg in 100 μl PBS every day. Mice were weighed and tumors size was measured 3 times a week. At the end of the experiment, the mice were sacrificed, and the tumors were dissected and used for further analysis.

The test system of assay [6] is SKBR3 breast cancer cells. Type of assay: cell-based, human.
Description: as §3
(§5) Methylene blue viability assay—Cells were plated in 96-wells plates at cell densities of 1.5×10^3 (EJ, DLD-1), 3×10^3 (Rat-1, HCT-116, U87), 5×10^3 (SKBR3, MCF7) and 6×10^3 (MCF10A) cells/well. […] Cell number determination was performed as described previously. IC-50 values were calculated using a non-linear regression model (logarithmic inhibitor vs. normalized response-variable slope) with the GraphPad Prism 6 software.

The next assay has as its system MCF7 breast cancer cells. Type of assay: cell-based, human. To be noted: MCF7.
Description: as §3, §5

Take “Myr-RRRHIVRKRTLRRLL-OH (Myristoyl-RRRHIVRKRTLRRLL-OH; SMILES CCCCCCCCCCCCCC(=O)N[C@@H](CCCNC(=N)N)C(=O)N[C@@H](CCCNC(=N)N)C(=O)N[C@@H](CCCNC(=N)N)C(=O)N[C@@H](Cc1c[nH]cn1)C(=O)N[C@H](C(=O)N[C@H](C(=O)N[C@@H](CCCNC(=N)N)C(=O)N[C@@H](CCCCN)C(=O)N[C@@H](CCCNC(=N)N)C(=O)N[C@H](C(=O)N[C@@H](CC(C)C)C(=O)N[C@@H](CCCNC(=N)N)C(=O)N[C@@H](CCCNC(=N)N)C(=O)N[C@@H](CC(C)C)C(=O)N[C@@H](CC(C)C)C(=O)O)[C@@H](C)O)C(C)C)[C@@H](C)CC) [myr-NLS]”: the “colony formation (total colonies area)” value in the assay with Panc-1 cells is “fewer and smaller colonies”. Further, the IC50 in assay [1] is 3.95 µM; in assay [3], 12.8 µM; in the assay with DLD-1 colon cancer cells, 34.2 µM; in the assay with U87 glioma cells, 32.2 µM; in [4], 8.1 µM; in [6] (SKBR3, 72 hours, FIGS. 4B and 4C, read-out: IC50 (cell viability)), 20.6 µM. In addition, the IC50 with MCF7 breast cancer cells (72 hours, FIGS. 4B and 4C, read-out: IC50 (cell viability)) came to 23.5 µM. Besides, in [2], the “viability of Rat-1 fibroblast cells transformed with constitutive Ras (EJ)” value is “decreased viability”. Besides, the “tumor growth (tumor size, tumor weight)” value in assay [5] was “significantly reduced tumor cell growth”. Further, in assay [6] (80 μM peptide for 72 hours, FIG. 4A), the “viability of SKBR3 breast cancer cells” value was “significantly reduced viability”. In addition, the “effect on viability as compared to non-transformed MCF10 cells” value is “much more pronounced” in [6] (SKBR3, FIG. 4C) and “much more pronounced” in the assay with MCF7 breast cancer cells (FIG. 4C).
